Data taken from patent US6602700B1, “Phenolic acid esterases, coding sequences and methods” (University of Georgia Research Foundation, Inc., priority 1998, dated 2003).

What follows are compounds tested against T1, FAE (Acetivibrio thermocellus, UniProt P10478) (assay: Inhibition of XynZ FAE by ferulic acid and sugars).
T1 construct: made in house; host or cells: E. coli BL21(DE3)
T1 sequence (P10478 20-286): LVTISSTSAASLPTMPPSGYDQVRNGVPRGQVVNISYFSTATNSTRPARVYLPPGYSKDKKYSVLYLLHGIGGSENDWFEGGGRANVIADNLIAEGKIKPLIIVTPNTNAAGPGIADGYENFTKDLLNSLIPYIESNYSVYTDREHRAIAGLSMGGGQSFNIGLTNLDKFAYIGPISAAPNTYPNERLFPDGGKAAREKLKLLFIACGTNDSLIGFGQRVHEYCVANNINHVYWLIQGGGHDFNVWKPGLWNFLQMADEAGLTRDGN
Assay type: biochemical, Clostridium thermocellum
With `O=C[C@@H](O)[C@H](O)[C@H](O)CO` [arabinose] the “Inhibition of FAE” value was “not”. For `COc1cc(/C=C/C(=O)O)ccc1O` [ferulic acid], the “Inhibition of FAE” value was “inhibited”. With `O=C[C@H](O)[C@@H](O)[C@H](O)CO` [xylose] the “Inhibition of FAE” value was “not”.
